Measurements: publication PMC12115184, “Metformin-Induced Apoptosis Is Mediated Through Mitochondrial VDAC1” (Pharmaceuticals, 2025)

Target: T1, VDAC1 (Rattus norvegicus, UniProt Q9Z2L0)
T1 construct: VDAC1 purified from rat liver mitochondria (channel conductance)
Assay: planar lipid bilayer conductance of reconstituted purified VDAC1; MST with N-terminal peptide
Assay type: biochemical

T1 sequence (Q9Z2L0 2-283): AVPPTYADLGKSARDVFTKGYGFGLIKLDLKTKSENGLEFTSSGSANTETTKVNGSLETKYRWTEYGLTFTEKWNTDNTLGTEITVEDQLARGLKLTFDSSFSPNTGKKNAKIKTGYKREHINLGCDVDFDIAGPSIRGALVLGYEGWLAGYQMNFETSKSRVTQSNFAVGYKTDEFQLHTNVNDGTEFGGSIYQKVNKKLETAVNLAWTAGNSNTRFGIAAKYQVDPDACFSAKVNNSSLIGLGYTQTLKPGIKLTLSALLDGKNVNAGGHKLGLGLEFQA

CN(C)C(=N)N=C(N)N [metformin, 3-(diaminomethylidene)-1,1-dimethylguanidine]
planar lipid bilayer conductance of reconstituted purified VDAC1; MST with N-ter: Metformin reduced VDAC1 conductance only after the channel was exposed to a high voltage step.
